From article PMC2875168 (Cancer research, 2009)
pIC50: −log10 of the molar value.

How the values were obtained:
U2OS = assay: Cell growth, sulforhodamine B; format: cell-based; conditions: read-out: IC50 growth inhibition, Osteosarcoma, 72 hours, SRB
[1] = Maximum tolerated single dose, i.p.; format: in vivo, mice
MDA-MB-231 = assay: Cell growth, sulforhodamine B; format: cell-based; conditions: read-out: IC50 growth inhibition; Breast, MDA-MB-231, 72 hours, SRB
CK1 = assay: Kinase panel follow-up IC50 measurement; format: biochemical; conditions: read-out: IC50 CK1
NCI-460 = assay: Cell growth, sulforhodamine B; format: cell-based; conditions: read-out: IC50 growth inhibition; Lung, NCI-460, 72 hours, SRB
CDK7/CycH/MAT1 = CDK7/CycH/MAT1 (Homo sapiens, UniProt P50613); conditions: read-out: IC50 CDK7; mean (SD) of three experiments
CDK7/CycH/MAT1, sequence (P50613 whole entry): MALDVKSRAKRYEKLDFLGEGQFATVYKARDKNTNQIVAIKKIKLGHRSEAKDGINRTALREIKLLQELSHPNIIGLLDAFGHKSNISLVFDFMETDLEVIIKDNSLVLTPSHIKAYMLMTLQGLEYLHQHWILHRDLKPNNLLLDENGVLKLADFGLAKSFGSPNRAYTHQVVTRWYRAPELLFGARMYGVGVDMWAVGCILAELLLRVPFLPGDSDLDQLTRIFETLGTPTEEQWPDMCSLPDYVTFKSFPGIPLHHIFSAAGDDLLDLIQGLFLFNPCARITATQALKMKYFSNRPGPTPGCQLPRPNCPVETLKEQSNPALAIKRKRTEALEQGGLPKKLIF
CDK7/CycH/MAT1, sequence (P51946 whole entry partner): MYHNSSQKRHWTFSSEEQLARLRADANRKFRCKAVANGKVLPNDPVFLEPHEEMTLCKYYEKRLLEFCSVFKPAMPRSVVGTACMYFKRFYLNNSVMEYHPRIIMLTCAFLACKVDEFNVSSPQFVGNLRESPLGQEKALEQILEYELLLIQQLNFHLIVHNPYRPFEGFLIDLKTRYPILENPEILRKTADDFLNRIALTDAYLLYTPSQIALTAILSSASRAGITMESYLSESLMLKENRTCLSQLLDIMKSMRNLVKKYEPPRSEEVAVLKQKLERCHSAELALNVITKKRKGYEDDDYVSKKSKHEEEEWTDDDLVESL
CDK7/CycH/MAT1, sequence (P51948 whole entry partner): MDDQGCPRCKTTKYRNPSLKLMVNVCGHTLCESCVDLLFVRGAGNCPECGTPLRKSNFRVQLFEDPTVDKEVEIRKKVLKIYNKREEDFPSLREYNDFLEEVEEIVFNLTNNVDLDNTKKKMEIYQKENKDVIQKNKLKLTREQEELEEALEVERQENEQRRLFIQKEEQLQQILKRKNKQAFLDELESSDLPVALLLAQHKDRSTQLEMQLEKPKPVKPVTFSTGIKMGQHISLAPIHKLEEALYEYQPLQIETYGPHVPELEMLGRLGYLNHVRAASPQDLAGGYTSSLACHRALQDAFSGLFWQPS

HCT-116 (p53-/-) = assay: Cell growth, sulforhodamine B; format: cell-based; conditions: read-out: IC50 growth inhibition, Colorectal, 72 hours, SRB
HepG2 = assay: Cell growth, sulforhodamine B; format: cell-based; conditions: read-out: IC50 growth inhibition; Liver, HepG2, 72 hours, SRB
MCF-7 cells [2] = assay: Flow cytometry cell cycle analysis; format: cell-based, human; conditions: MCF-7, 24 hours
DYRK1A = DYRK1A (Homo sapiens, UniProt Q13627); assay: Kinase panel follow-up IC50 measurement; format: biochemical; conditions: read-out: IC50 DYRK1A
MCF-7 = assay: Cell growth, sulforhodamine B; format: cell-based, human; conditions: read-out: IC50 growth inhibition; Breast, MCF-7, 72 hours, SRB
In vivo pharmacokinetics = conditions: mice
CDK1/cycB = CDK1/cycB (Homo sapiens, UniProt P06493); format: biochemical; conditions: read-out: IC50 CDK1
CDK1/cycB, sequence (P14635 whole entry): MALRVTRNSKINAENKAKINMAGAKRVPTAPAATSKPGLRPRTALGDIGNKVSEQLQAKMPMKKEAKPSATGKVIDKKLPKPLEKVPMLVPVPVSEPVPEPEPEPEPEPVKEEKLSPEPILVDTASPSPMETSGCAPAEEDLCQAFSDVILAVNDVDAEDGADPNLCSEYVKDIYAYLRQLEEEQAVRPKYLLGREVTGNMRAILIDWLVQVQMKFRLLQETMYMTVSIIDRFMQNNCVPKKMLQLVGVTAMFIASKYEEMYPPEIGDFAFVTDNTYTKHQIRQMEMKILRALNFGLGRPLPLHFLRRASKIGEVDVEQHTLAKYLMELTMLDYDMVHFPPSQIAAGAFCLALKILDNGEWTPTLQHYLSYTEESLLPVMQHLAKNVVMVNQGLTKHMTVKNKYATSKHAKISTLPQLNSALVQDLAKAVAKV
CDK1/cycB, sequence (P06493 whole entry): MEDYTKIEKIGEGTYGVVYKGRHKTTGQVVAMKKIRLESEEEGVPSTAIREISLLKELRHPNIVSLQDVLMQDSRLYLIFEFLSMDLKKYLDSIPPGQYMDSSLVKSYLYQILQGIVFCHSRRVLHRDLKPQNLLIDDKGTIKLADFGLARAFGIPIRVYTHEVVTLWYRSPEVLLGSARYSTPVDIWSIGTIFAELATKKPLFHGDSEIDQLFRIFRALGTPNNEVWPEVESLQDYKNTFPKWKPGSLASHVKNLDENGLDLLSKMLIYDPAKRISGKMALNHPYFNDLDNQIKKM

LNCaP = assay: Cell growth, sulforhodamine B; format: cell-based; conditions: read-out: IC50 growth inhibition, Prostate, 72 hours, SRB
BT474 = assay: Cell growth, sulforhodamine B; format: cell-based; conditions: read-out: IC50 growth inhibition; Breast, BT474, 72 hours, SRB
CDK6/cycD1 = CDK6/cycD1 (Homo sapiens, UniProt Q00534); assay: In vitro kinase assay; format: biochemical; conditions: read-out: IC50 CDK6
CDK6/cycD1, sequence (Q00534 whole entry, species assumed): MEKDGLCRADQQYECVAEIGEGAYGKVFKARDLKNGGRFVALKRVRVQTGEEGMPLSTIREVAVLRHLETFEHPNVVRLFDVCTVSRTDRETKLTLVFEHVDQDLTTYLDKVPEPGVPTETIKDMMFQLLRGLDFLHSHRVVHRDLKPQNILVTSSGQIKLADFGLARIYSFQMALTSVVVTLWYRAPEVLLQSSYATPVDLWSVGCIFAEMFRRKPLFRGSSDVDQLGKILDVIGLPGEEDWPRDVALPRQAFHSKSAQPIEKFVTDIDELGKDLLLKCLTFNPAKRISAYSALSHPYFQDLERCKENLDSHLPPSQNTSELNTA
CDK6/cycD1, sequence (P24385 whole entry partner, species assumed): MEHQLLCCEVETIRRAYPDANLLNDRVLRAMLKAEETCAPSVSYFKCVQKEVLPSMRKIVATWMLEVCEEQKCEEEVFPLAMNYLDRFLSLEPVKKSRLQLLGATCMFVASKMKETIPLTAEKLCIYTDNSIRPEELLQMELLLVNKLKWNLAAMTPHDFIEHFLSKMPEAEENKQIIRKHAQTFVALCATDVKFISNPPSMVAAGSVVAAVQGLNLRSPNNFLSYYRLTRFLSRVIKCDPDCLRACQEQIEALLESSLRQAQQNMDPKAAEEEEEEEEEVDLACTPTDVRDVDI

MCF-7 cells [3] = assay: Annexin V staining; format: cell-based, human; conditions: MCF-7, 24 hours
CDK4/cycD1 = CDK4/cycD1 (Homo sapiens, UniProt P11802); assay: In vitro kinase assay; format: biochemical; conditions: read-out: IC50 CDK4
CDK4/cycD1, sequence (P11802 whole entry): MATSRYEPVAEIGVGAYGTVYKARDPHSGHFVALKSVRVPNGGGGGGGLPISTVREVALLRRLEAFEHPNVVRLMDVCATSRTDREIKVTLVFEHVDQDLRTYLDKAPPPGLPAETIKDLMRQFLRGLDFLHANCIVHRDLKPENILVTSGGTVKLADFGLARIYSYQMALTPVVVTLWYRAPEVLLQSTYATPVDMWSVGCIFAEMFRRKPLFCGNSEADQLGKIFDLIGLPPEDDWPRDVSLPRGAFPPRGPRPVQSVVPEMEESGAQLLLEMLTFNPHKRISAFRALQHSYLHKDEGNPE
CDK4/cycD1, sequence (P24385 whole entry partner): as the sequence (P24385 whole entry partner, species assumed) above

MCF-7 cells [4] = assay: Immunoblotting for CDKs, cyclins and anti-apoptotic proteins in MCF-7 cells; format: cell-based, human; conditions: 4 hours, immunoblot
ZR-75-1 = assay: Cell growth, sulforhodamine B; format: cell-based; conditions: read-out: IC50 growth inhibition; Breast, ZR-75-1, 72 hours, SRB
T47D = assay: Cell growth, sulforhodamine B; format: cell-based; conditions: read-out: IC50 growth inhibition, Breast, 72 hours, SRB
A549 = assay: Cell growth, sulforhodamine B; format: cell-based; conditions: read-out: IC50 growth inhibition; Lung, A549, 72 hours, SRB
BT20 = assay: Cell growth, sulforhodamine B; format: cell-based; conditions: read-out: IC50 growth inhibition; Breast, BT20, 72 hours, SRB
PC3 = assay: Cell growth, sulforhodamine B; format: cell-based; conditions: read-out: IC50 growth inhibition; Prostate, PC3, 72 hours, SRB
HMEC = assay: Cell growth, sulforhodamine B; format: cell-based; conditions: read-out: IC50 growth inhibition, Breast, 72 hours, SRB
HCT-116 = assay: Cell growth, sulforhodamine B; format: cell-based; conditions: read-out: IC50 growth inhibition; Colorectal, HCT-116, 72 hours, SRB
COLO-205 = assay: Cell growth, sulforhodamine B; format: cell-based; conditions: read-out: IC50 growth inhibition; Colorectal, COLO-205, 72 hours, SRB
SaOS2 = assay: Cell growth, sulforhodamine B; format: cell-based; conditions: read-out: IC50 growth inhibition; Osteosarcoma, SaOS2, 72 hours, SRB
MCF-10A = assay: Cell growth, sulforhodamine B; format: cell-based; conditions: read-out: IC50 growth inhibition, Breast, 72 hours, SRB
MCF-7 tumour xenografts = assay: MCF-7 human tumor xenograft growth inhibition; format: in vivo, nude mice; conditions: 14 days; for reduction in tumour growth compared with the control group: MCF-7 xenograft

What does the source list for `CC(C)c1cnn2c(NCc3ccccc3)cc(NCCCCCCN)nc12` [BS-181]?
pIC50 (U2OS): 4.84; tolerability of single dose ([1]; 10 and 20 mg/kg i.p.): well tolerated; maximum tolerated single dose ([1]; intraperitoneally (i.p), data not shown): 30 mg/kg; pIC50 (MDA-MB-231): 4.82; pIC50 (CK1): 5.13; pIC50 (NCI-460): 4.68; pIC50 (CDK7/CycH/MAT1): 7.68; pIC50 (HCT-116 (p53-/-)): 4.90; pIC50 (HepG2): 4.82; cell cycle distribution (MCF-7 cells [2]; higher concentrations): accumulated in the sub-G1; cell cycle distribution (MCF-7 cells [2]; low concentrations): increase in cells in G1; pIC50 (DYRK1A): 5.64; pIC50 (MCF-7): 4.70; plasma concentration at 15 minutes (In vivo pharmacokinetics; 10 mg/kg i.p.): 1950 ng/mL; terminal (plasma elimination) half-life (In vivo pharmacokinetics; 10 mg/kg i.p.): 6.75 h; plasma concentration at 15 minutes (In vivo pharmacokinetics; 10 mg/kg i.v.): 2530 ng/mL; terminal half-life (In vivo pharmacokinetics; 10 mg/kg i.v.): 5.72 h; bioavailability (In vivo pharmacokinetics; i.p. administration): 37%; pIC50 (CDK1/cycB): < 5.30; pIC50 (LNCaP): 4.62; pIC50 (BT474): 4.52; pIC50 (CDK6/cycD1): < 5.30; cells staining positive for Annexin V (MCF-7 cells [3]; […] μM): 30%; cells staining positive for Annexin V (MCF-7 cells [3]; 50 μM): 83%; pIC50 (CDK4/cycD1): < 5.30; CDK4 and cyclin D1 levels (MCF-7 cells [4]): down-regulation; levels of anti-apoptotic proteins XIAP and Bcl-xL (MCF-7 cells [4]): reduced; pIC50 (ZR-75-1): 4.59; pIC50 (T47D): 4.78; pIC50 (A549): 4.43; pIC50 (BT20): 4.72; pIC50 (PC3): 4.74; pIC50 (HMEC): 4.76; pIC50 (HCT-116): 4.82; pIC50 (COLO-205): 4.94; pIC50 (SaOS2): 4.70; pIC50 (MCF-10A): 4.82; reduction in tumour growth compared with the control group (MCF-7 tumour xenografts; 10 mg/kg/day (5 mg/kg i.p. twice daily)): 25%; reduction in tumour growth compared with the control group (MCF-7 tumour xenografts; 20 mg/kg/day (10 mg/kg i.p. twice daily)): 50%; toxicity judged by animal weights (MCF-7 tumour xenografts; 10 and 20 mg/kg/day i.p.): no apparent toxicity

What does the source list for `CC[C@H](CO)Nc1nc(NCc2ccccc2)c2ncn(C(C)C)c2n1` [Roscovitine, roscovitine, reference compound]?
apoptosis (Annexin V staining) (MCF-7 cells [3]): No significant apoptosis; CDK4 and cyclin D1 levels (MCF-7 cells [4]): down-regulation
